# Experimental data taken from ChEMBL document CHEMBL5029193, “Design of Coibamide A Mimetics with Improved Cellular Bioactivity” (ACS Med Chem Lett, 2022).
# pIC50: −log10 of the molar value. Where a SMILES comes first, the peptide text is derived from it. Bridges are numbered along the chain shown (N, C = ends). [ ]: non-standard residue; d: D form. The star is where a group is joined. Bip = N[C@@H](Cc1ccc(-c2ccccc2)cc1)C(=O)O; dNMeaIle = CC[C@H](C)[C@@H](NC)C(=O)O; NMe2Val = CC(C)[C@@H](C(=O)*)N(C)C; NMeLys(Me) = CNCCCC[C@H](NC)C(=O)O; NMeI = CC[C@H](C)[C@H](NC)C(=O)O; NMeT = CN[C@H](C(=O)O)[C@@H](C)O; 2Pal = N[C@@H](Cc1ccccn1)C(=O)O; 3Pal = N[C@@H](Cc1cccnc1)C(=O)O; 4Pal = N[C@@H](Cc1ccncc1)C(=O)O; NMeL = CN[C@@H](CC(C)C)C(=O)O; NMeOrn = CN[C@@H](CCCN)C(=O)O; dNMeOrn = CN[C@H](CCCN)C(=O)O; dHiv = CC(C)[C@@H](O)C(=O)O; NMeS = CN[C@@H](CO)C(=O)O; NMeA = CN[C@@H](C)C(=O)O; dNMeA = CN[C@H](C)C(=O)O
# Tested on: A549
# Assay: Cytotoxicity against human A549 cells assessed as cell growth inhibition incubated for 72 hrs by MTS assay
# Format: functional, cell-based
# Conditions: A549, 72 h
row,Compound,pIC50
1,CC[C@H](C)[C@H]1C(=O)N[C@@H](C)C(=O)N(C)[C@@H](CC(C)C)C(=O)N[C@H](Cc2ccc(OC)cc2)C(=O)N(C)CCCC[C@H](N(C)C(=O)[C@H](CC(C)C)N(C)C(=O)[C@H](C)N(C)C(=O)[C@H](OC(=O)[C@H](C(C)C)N(C)C)C(C)C)C(=O)N(C)[C@@H](C)C(=O)N1C (NMe2Val-[dHiv][NMeA][NMeL][NMeLys(Me)][NMeA][NMeI]A[NMeL][dY](Me); lactam 4-C),< 5.00
2,CC[C@H](C)[C@H]1C(=O)N[C@@H](C)C(=O)N(C)[C@@H](CC(C)C)C(=O)N[C@@H](Cc2ccc(OC)cc2)C(=O)N(C)CCCC[C@H](N(C)C(=O)[C@H](CC(C)C)N(C)C(=O)[C@H](C)N(C)C(=O)[C@H](OC(=O)[C@H](C(C)C)N(C)C)C(C)C)C(=O)N(C)[C@H](C)C(=O)N1C (NMe2Val-[dHiv][NMeA][NMeL][NMeLys(Me)][dNMeA][NMeI]A[NMeL]Y(Me); lactam 4-C),< 5.00
3,CC[C@H](C)[C@H]1C(=O)N[C@@H](C)C(=O)N(C)[C@@H](CC(C)C)C(=O)N[C@@H](Cc2ccc(OC)cc2)C(=O)NCCC[C@@H](N(C)C(=O)[C@H](CC(C)C)N(C)C(=O)[C@H](C)N(C)C(=O)[C@H](OC(=O)[C@H](C(C)C)N(C)C)C(C)C)C(=O)N(C)[C@@H](C)C(=O)N1C (NMe2Val-[dHiv][NMeA][NMeL][dNMeOrn][NMeA][NMeI]A[NMeL]Y(Me); lactam 4-C),< 5.00
4,CC[C@H](C)[C@H]1C(=O)N[C@@H](C)C(=O)N(C)[C@@H](CC(C)C)C(=O)N[C@@H](Cc2cccnc2)C(=O)N(C)CCCC[C@H](N(C)C(=O)[C@H](CC(C)C)N(C)C(=O)[C@H](C)N(C)C(=O)[C@H](OC(=O)[C@H](C(C)C)N(C)C)C(C)C)C(=O)N(C)[C@@H](C)C(=O)N1C (NMe2Val-[dHiv][NMeA][NMeL][NMeLys(Me)][NMeA][NMeI]A[NMeL][3Pal]; lactam 4-C),< 5.00
5,CC[C@H](C)[C@@H]1C(=O)N[C@@H](C)C(=O)N(C)[C@@H](CC(C)C)C(=O)N[C@@H](Cc2ccc(OC)cc2)C(=O)N(C)CCCC[C@H](N(C)C(=O)[C@H](CC(C)C)N(C)C(=O)[C@H](C)N(C)C(=O)[C@H](OC(=O)[C@H](C(C)C)N(C)C)C(C)C)C(=O)N(C)[C@@H](C)C(=O)N1C (NMe2Val-[dHiv][NMeA][NMeL][NMeLys(Me)][NMeA][dNMeaIle]A[NMeL]Y(Me); lactam 4-C),< 5.00
6,CC[C@H](C)[C@H]1C(=O)N[C@@H](C)C(=O)N(C)[C@@H](CC(C)C)C(=O)N[C@@H](Cc2ccc(OC)cc2)C(=O)N(C)CCCC[C@H](N(C)C(=O)[C@H](CC(C)C)NC(=O)[C@H](C)N(C)C(=O)[C@H](OC(=O)[C@H](C(C)C)N(C)C)C(C)C)C(=O)N(C)[C@@H](C)C(=O)N1C (NMe2Val-[dHiv][NMeA]L[NMeLys(Me)][NMeA][NMeI]A[NMeL]Y(Me); lactam 4-C),5.47
7,CC[C@H](C)[C@H]1C(=O)N[C@@H](C)C(=O)N(C)[C@@H](CC(C)C)C(=O)N[C@@H](Cc2ccc(-c3ccccc3)cc2)C(=O)N(C)[C@H](C)C(=O)O[C@H](C)[C@H](N(C)C(=O)[C@H](CC(C)C)N(C)C(=O)[C@H](COC)N(C)C(=O)[C@H](OC(=O)[C@H](C(C)C)N(C)C)C(C)C)C(=O)N(C)[C@@H](COC)C(=O)N1C (NMe2Val-[dHiv][NMeS](Me)[NMeL][NMeT][NMeS](Me)[NMeI]A[NMeL][Bip][dNMeA]; ester 4-C),9.96
8,CC[C@H](C)[C@H]1C(=O)N[C@@H](C)C(=O)N(C)[C@@H](CC(C)C)C(=O)N[C@@H](Cc2ccccn2)C(=O)N(C)CCCC[C@H](N(C)C(=O)[C@H](CC(C)C)N(C)C(=O)[C@H](C)N(C)C(=O)[C@H](OC(=O)[C@H](C(C)C)N(C)C)C(C)C)C(=O)N(C)[C@@H](C)C(=O)N1C (NMe2Val-[dHiv][NMeA][NMeL][NMeLys(Me)][NMeA][NMeI]A[NMeL][2Pal]; lactam 4-C),< 5.00
9,CC[C@H](C)[C@H]1C(=O)N[C@H](C)C(=O)N(C)[C@@H](CC(C)C)C(=O)N[C@@H](Cc2ccc(OC)cc2)C(=O)N(C)CCCC[C@H](N(C)C(=O)[C@H](CC(C)C)N(C)C(=O)[C@H](C)N(C)C(=O)[C@H](OC(=O)[C@H](C(C)C)N(C)C)C(C)C)C(=O)N(C)[C@@H](C)C(=O)N1C (NMe2Val-[dHiv][NMeA][NMeL][NMeLys(Me)][NMeA][NMeI][dA][NMeL]Y(Me); lactam 4-C),< 5.00
10,CC[C@H](C)[C@H]1C(=O)N[C@@H](C)C(=O)N(C)[C@@H](CC(C)C)C(=O)N[C@@H](Cc2ccc(OC)cc2)C(=O)NCCC[C@H](N(C)C(=O)[C@H](CC(C)C)N(C)C(=O)[C@H](C)N(C)C(=O)[C@H](OC(=O)[C@H](C(C)C)N(C)C)C(C)C)C(=O)N(C)[C@@H](C)C(=O)N1C (NMe2Val-[dHiv][NMeA][NMeL][NMeOrn][NMeA][NMeI]A[NMeL]Y(Me); lactam 4-C),< 5.00
11,CC[C@H](C)[C@H]1C(=O)N[C@@H](C)C(=O)N(C)[C@@H](CC(C)C)C(=O)N[C@@H](Cc2ccncc2)C(=O)N(C)CCCC[C@H](N(C)C(=O)[C@H](CC(C)C)N(C)C(=O)[C@H](C)N(C)C(=O)[C@H](OC(=O)[C@H](C(C)C)N(C)C)C(C)C)C(=O)N(C)[C@@H](C)C(=O)N1C (NMe2Val-[dHiv][NMeA][NMeL][NMeLys(Me)][NMeA][NMeI]A[NMeL][4Pal]; lactam 4-C),< 5.00
12,CC[C@H](C)[C@@H]1NC(=O)[C@H](C)N(C)C(=O)[C@@H](N(C)C(=O)[C@H](CC(C)C)N(C)C(=O)[C@H](C)N(C)C(=O)[C@H](OC(=O)[C@H](C(C)C)N(C)C)C(C)C)CCCCN(C)C(=O)[C@H](Cc2ccc(OC)cc2)NC(=O)[C@H](CC(C)C)N(C)C(=O)[C@H](C)NC1=O (NMe2Val-[dHiv][NMeA][NMeL][NMeLys(Me)][NMeA]IA[NMeL]Y(Me); lactam 4-C),< 5.00
